Measurements as given in patent US20040058852A1, “Use of gap-junction blockers in neurodegenerative disease” (priority 2002, published 2004).
“Also recorded” adds a separate entry of the source.

Experiments:
[1] = test system: brain damage in immature fetuses and newborn infants; conditions: randomized double-blind trials; cited from earlier work
[2] = test system: CA1 pyramidal neurons in organotypic hippocampal slice cultures; assay type: cell-based, Sprague-Dawley rat
Procedure: Organotypic hippocampal slice cultures were prepared from 9- to 12-day old Sprague-Dawley rat pups (Charles River, Wilmington, Del.) of both sexes (Stoppini et al., 1991). Rats were decapitated under deep ketamine anesthesia, the hippocampi rapidly dissected out and placed immediately into ice-cold dissection medium containing: 3.5 mM KCl, 0.5 mM NaH2PO4, 10 mM MgSO4, 5 mM NaHCO3, 118 mM n-methyl-D-glucosamina, 1.1 mM KH2PO4, 10 mM HEPES, 20 mM D-glucose, pH 7.35, gassed with 95% O2/5% CO2. Transverse slices of hippocampus plus entorhinal cortex were cut using a spring-loaded grid of 20 μm diameter wires spaced 400 μm apart. Slices were immediately transferred into dissection medium, separated and placed on semi-permeable membrane tissue culture inserts (Millipore Corporation, Bedford, Mass.) in a 6-well plate, each well containing 1 ml of culture medium (50% Minimum Essential Medium, 25% Hank's balanced salt solution, 25% heat-inactivated horse serum, 13 mM HEPES, 2.5 mg/ml glucose). Cultures were maintained at 35° C. in a humidified 5% CO2 incubator and medium was changed every 2-3 days.
After 6-10 days in culture, hippocampal slice cultures were exposed to hypoxia-ischemia (HI) by transient oxygen and glucose deprivation. Slices were transferred into another six-well plate containing 1 ml of Ringermannitol glucose-free medium per well, containing 1.25 mM CaCl2, 0.9 mM MgSO4, 5.4 mM KCl, 0.44 mM KH2PO4, 137 mM NaCl, 4.2 mM NaHCO3, 0.35 mM NaH2PO4, 16.7 mM HEPES, and 27.5 mM mannitol, and placed in a hypoxic box continuously gassed with 95% N2/5% CO2 for 45 min. They were then returned to normal medium with carbon dioxide until measurement of neuronal death.
Carbenoxolone (disodium salt) was purchased from Sigma (St. Louis, Mo.), propidium iodide and carboxyfluorescein diacetate from Molecular Probes (Eugene, Oreg.). Cleaved caspase-3 antibody was purchased from Cell Signaling (Beverly, Mass.).
Media containing 1 μM PI was applied for 10 min to slices and PI-labeled dead cells imaged using […] filters. IPLab (Signal Analytics Corp.) and NIH image analysis programs were used to quantitate total fluorescence intensity for equal regions of interest within the CA1 pyramidal cell body layer (stratum pyramidale).

[3] = test system: synaptic transmission in CA1 stratum radiatum of hippocampal slice cultures; assay: Schaffer collateral-evoked excitatory postsynaptic potentials in slice cultures 24 hr post-HI; assay type: cell-based, Sprague-Dawley rat; conditions: 75 μM, 45 min HI
Procedure: Organotypic hippocampal slice cultures were prepared from 9- to 12-day old Sprague-Dawley rat pups (Charles River, Wilmington, Del.) of both sexes (Stoppini et al., 1991). Rats were decapitated under deep ketamine anesthesia, the hippocampi rapidly dissected out and placed immediately into ice-cold dissection medium containing: 3.5 mM KCl, 0.5 mM NaH2PO4, 10 mM MgSO4, 5 mM NaHCO3, 118 mM n-methyl-D-glucosamina, 1.1 mM KH2PO4, 10 mM HEPES, 20 mM D-glucose, pH 7.35, gassed with 95% O2/5% CO2. Transverse slices of hippocampus plus entorhinal cortex were cut using a spring-loaded grid of 20 μm diameter wires spaced 400 μm apart. […]
Slice cultures were placed in an interface recording chamber between artificial cerebrospinal fluid (ACSF; perfusion rate 3 ml/min) and a humidified atmosphere of 95% O2/5% CO2. […] Extracellular excitatory postsynaptic potentials (EPSPs) were recorded (2 M NaCl-filled electrodes) in stratum radiatum and elicited by bipolar Schaffer collateral stimulation (intensities 20-200 μA), recorded using an Axopatch 200A amplifier in current-clamp mode.

[4] = test system: gap junction coupling in hippocampal slice cultures; assay: Fluorescence recovery after photobleaching (FRAP) in CA1 fields of hippocampal slice cultures; assay type: cell-based, Sprague-Dawley rat; design: dose or concentration left out as unconfirmed
Procedure: Fluorescence recovery in CA1 fields of hippocampal slice cultures was evaluated as in Wade et al., 1986. Hippocampal slice cultures were loaded by 45 min application of carboxyfluorescein diacetate (30 μM). CA1 fields of view were photobleached for 2 min using the 488 nm laser line of a confocal microscope (Nikon RCM 8000) and images acquired at low power at 1 min intervals thereafter. Quantitative image analysis was performed using Polygon-Star software (Nikon).

[5] = test system: rat pups subjected to intrauterine hypoxic-ischemia; assay: Intrauterine hypoxic-ischemia (transient global anoxia during C-section delivery): survival, growth, histopathology; assay type: in vivo; conditions: for survived reperfusion / mortality: 75 mg/Kg
Procedure: Sprague Dawley fetuses were subjected to transient global anoxia during C-section delivery (Bjelke et al., 1991; Brake et al., 1997). Pregnant rats at term (21 days gestation) were decapitated, the abdomen incised, and the uterus was quickly isolated from its blood supply and surrounding fat tissue and connective tissue. Acute anoxia was induced by immersing the intact uterus containing the fetuses into 37° C. saline for 12.5-15 min. […] Blood gases and pH Samples were analyzed for blood gases and pH on a blood gas monitor (RapidLab 855, Bayer,UK).
Animals were deeply anesthetized with ketalar and perfused via a transcardiac site after which brains were removed, rinsed with saline and fixed in formaldehyde buffered to pH 7.35. Brains were cut into sagittal sections, sliced in 2 mm cross-sections (Braintree Scientific Inc, Mass.), dehydrated with a tissue processor (TP1050, Leica Instruments, Germany), embedded in paraffin, sectioned with a Leica freezing microtome, and stained with haematoxylon-eosin.
Groups were compared by ANOVA or Student's t-test, as appropriate, with group size pre-selected based on P<0.05 significance criterion.

caspase-3 = assay: Western blot of activated caspase-3 in whole brain 24 hr after intrauterine HI; assay type: in vivo, rat; conditions: for HI-induced increase of activated caspase-3 in whole brain: 75 mg/kg i.p. immediately after HI, 24 hr
Procedure: Protein was extracted from whole-brain 24 hr following HI and concentration determined with a BCA Protein Assay Kit (Pierce, Rockford, Ill.). Twenty-five μg protein/sample was applied per lane and separated by electrophoresis in 10% or 10-20% SDS-polyacrylamide gels (BioRad, Hercules, Calif.) and transferred to nitrocellulose membranes (Schleicher and Schuell, Keene, N.H.). Membranes were blotted […] with cleaved caspase-3 ([…]) antibody (1:700) overnight at 4° C., and then incubated in horseradish peroxidase-conjugated anti-rabbit IgG 1:1500. […] As an internal control, glyceraldehyde-3-phosphate dehydrogenase (GAPDH) was blotted with horseradish peroxidase-conjugated goat antimouse IgG at a concentration of 1:4000. Densitometriy of chemiluminescent bands was quantified using Scion Image densitometer software (NIH), and band densities normalized to GAPDH density in the same gel.

[6] = test system: neonatal rats with seizures following intrauterine HI insults; assay: Behavioral and electrographic (EEG) seizures after intrauterine hypoxic-ischemia; assay type: in vivo, rat; design: ischemic pups that died: dose or concentration left out as unconfirmed; conditions: for behavioral seizures following HI insults: i.p. at the onset of motor seizures; for electrographic seizures (EEG epileptiform activity): i.p., EEG 40 min after administration, one pup
From the text: Rat pups were delivered by C-section. One group was subjected to intra-uterine hypoxic-ischemia, the control group was also delivered by caesarian-section but not subjected to a period of hypoxic-ischemia.
Surviving animals in all groups were examined neuropathologically at 21 days following delivery (P21).

[7] = intraperitoneal and subcutaneous injections; cited from earlier work
[8] = test system: secondary edema following focal hypoxic-ischemic insult; conditions: experimental animal models; cited from earlier work
newborn infants = newborn infants or heart surgery using deep hypothermic circulatory arrest; cited from earlier work
infarcts after stroke = conditions: applied before the induction of stroke; cited from earlier work
[9] = i.p. to newborn rats at least 15 min after HI

## O=S(=O)([O-])[O-].[Mg+2] [magnesium sulfate]
[1]
  protective effect against brain damage: did not provide a protective effect

## CC1(C)[C@@H](OC(=O)CCC(=O)O)CC[C@]2(C)[C@H]3C(=O)C=C4[C@@H]5C[C@@](C)(C(=O)O)CC[C@]5(C)CC[C@@]4(C)[C@]3(C)CC[C@@H]12 [carbenoxolone, Carbenoxolone]
[2]
  viability or morphology of control organotypic slice cultures: did not detectably alter
[2]; 75 μM
  neuroprotection when applied in vitro: marked neuroprotection
[2]; 75 μM added 30 min prior to, during and 60 min after a 45 min HI insult, 24 hr following HI
  delayed death of CA1 pyramidal neurons assessed by PI staining intensity: markedly reduced
[2]; 75 μM, 60 min after the end of the HI episode (FIG. 2c)
  PI fluorescence 24 hr post-HI in hippocampal slice culture: reduced PI fluorescence
[3]
  protection against loss of synaptic transmission in CA1 stratum radiatum (EPSP): very effective
[4]
  gap junction coupling in slice cultures: effective at reducing gap junction coupling
[5]; 4 hrs
  survived reperfusion: 76.5±9%
[5]; 4 hrs of reoxygenation/recirculation after perinatal HI
  mortality: 23.5%
[5]; 24 hrs
  survived reperfusion: 73±9.5%
[5]; 24 hrs after perinatal HI
  mortality: 27%
[5]; 48 hrs
  survived reperfusion: 70±12.5%
[5]; 48 hrs after perinatal HI
  mortality: 30%
[5]; 75 mg/kg i.p. after intrauterine HI
  cerebellar damage: preventing cerebellar damage
[5]; 75 mg/kg i.p. after intrauterine HI, n=5
  extent of histopathological damage in the hippocampus and neocortex: dramatically reduced
[5]; 75 mg/kg immediately after intrauterine HI, compared to HI alone (FIG. 3d)
  long-term development assessed by size: improves
[5]; 21 days post-HI
  survival rate: 70±12%
[5]; [9]
  crossing of the blood-brain barrier: cross the blood-brain barrier in sufficient time and concentration
  long-term damage induced by HI: markedly reduce
[5]; postnatal day 21, HI rats
  body weight: 29.2 ± 3 g
caspase-3
  HI-induced increase of activated caspase-3 in whole brain: largely prevented
caspase-3; listed as Carbenoxolone
  HI-induced increase of activated caspase-3 in whole brain: reduced the activation
caspase-3; 75 mg/kg i.p. immediately after perinatal HI, 24 hr post-HI, relative to HI alone
  activation of caspase-3, reduced to: 43±15%
caspase-3; HI+Carb, 75 mg/kg i.p., 24 hr post-HI
  caspase-3 band densities (normalized to GAPDH): 302±115
[6]
  behavioral seizures following HI insults: absence of seizures; also recorded: abolishes
  electrographic seizures (EEG epileptiform activity): loss of electrographic epileptiform activity; also recorded: abolishes
[6]; listed as Carbenoxolone
  behavioral seizures following HI insults: stopped
  electrographic seizures (EEG epileptiform activity): stopped
[6]; treated with carbenoxolone
  ischemic pups that died: One of 12
[7]
  crossing of normoxic foeto-placental and adult blood-brain barriers: has been shown to cross

## Oc1ncnc2[nH]ncc12 [Allopurinol]
[8]
  severity of secondary edema: reduced
Newborn infants
  outcome in clinical trials: has not been successful

## CCCCCCCCO [octanol]
Infarcts after stroke
  infarct size: reduced infarct size; also recorded: reduce the size of infarcts
